# Measurements from patent publication US20230139883A1, “Peptides for Inducing Differentiation” (Shimadzu Corporation, priority 2020, published 2023).
# How the values were obtained:
# FGFR1 = assay: Phage display selection against FGFR1 with Miseq analysis of the bound phages; assay type: binding; details: for 1 nM Num. of reads: phage library after panning Round 5, bound to 1 nM FGFR1; for 10 nM Num. of reads: phage library after panning Round 5, bound to 10 nM FGFR1; for 100 nM Num. of reads: phage library after panning Round 5, bound to 100 nM FGFR1; for 1 nM Ranking / 10 nM Ranking / 100 nM Ranking: rank by number of reads; for 1 nM Ranking: 1 nM FGFR1; for 10 nM Ranking: 10 nM FGFR1; for 100 nM Ranking: 100 nM FGFR1
# Method: The collected phage library was mixed with 100 nM of FGFR3 solution and allowed to react overnight at 4° C. (Table 5: Panning Round 1). After the reaction, the binding phages were captured by magnetic beads modified with protein A, and washed three times with PBS-T, followed by eluting the bound phages with Gly-HCl (pH 2.0). After neutralizing with 2M Tris, the phages were infected to E. coli. After 4 hours of incubation, helper phages were added, and the E. coli were allowed to produce phages overnight. Next, phage solution was prepared from the culture supernatant. The prepared phage solution was mixed with FGFR3 solution and allowed to react overnight at 4° C. (Table 5: Panning Round 2). After the reaction, the bound phages were eluted. Phage solution prepared in the same way was mixed with FGFR3 solution and allowed to react at 4° C. for 1 hour (Table 5: Panning Round 3). After the reaction, the bound phages were eluted. This operation was repeated two more times, and after Panning Round 5, the bound phages were eluted. Note that as the rounds proceeded, the number of washes with PBS-T was increased. (Table 5). The titer of the Output phage in each round was also determined. The titer of phage was determined from the number of colonies obtained by incubating the E. coli TG1 strain contacted with the phage at 37° C. overnight. As shown in FIG. 3<Input phage (Round 5)>, the eluted phage library after panning was subjected to Human IgG Fc-immobilized plate, and negative selection was performed by collecting unbound phages. The phage library was then acted to FGFR1 prepared to concentrations of 100 nM, 10 nM, and 1 nM. Bound phages were then collected. The phagemid DNA of the collected phages was extracted, samples were prepared according to Illumina's protocol for Miseq, and a comprehensive analysis of the phagemid DNA was performed. Among the sequences obtained, 23 sequences with high incidence rates were selected (Table 6).
# FGFR3 = assay: Phage display selection against FGFR3 with Miseq analysis of the bound phages; assay type: binding; details: for 1 nM Num. of reads: phage library after panning Round 4, bound to 1 nM FGFR3; for 10 nM Num. of reads: phage library after panning Round 4, bound to 10 nM FGFR3; for 100 nM Num. of reads: phage library after panning Round 4, bound to 100 nM FGFR3; for 1 nM Ranking / 10 nM Ranking / 100 nM Ranking: rank by number of reads; for 1 nM Ranking: 1 nM FGFR3; for 10 nM Ranking: 10 nM FGFR3; for 100 nM Ranking: 100 nM FGFR3
# Method: The collected phage library was mixed with 100 nM of FGFR3 solution and allowed to react overnight at 4° C. (Table 9: Panning Round 1). After the reaction, the binding phages were captured by magnetic beads modified with protein A, and washed three times with PBS-T, followed by eluting the bound phages with Gly-HCl (pH 2.0). After neutralizing with 2M Tris, the pages were infected to E. coli (TG1 strain). After 4 hours of incubation, helper phages were added, and the E. coli (TG1 strain) were allowed to produce phages overnight. Next, phage solution was prepared from the culture supernatant. The prepared phage solution was mixed with FGFR3 solution and allowed to react overnight at 4° C. (Table 9: Panning Round 2). After the reaction, the bound phages were eluted. Phage solution prepared in the same way was mixed with FGFR3 solution and allowed to react at 4° C. for 1 hour (Table 9: Panning Round 3). After the reaction, the bound phages were eluted. This operation was further repeated, and after Panning Round 4, the bound phages were eluted. Note that as the rounds proceeded, the number of washes with PBS-T was increased. (Table 9). The titer of the Output phage in each round was also determined. The titer of phage was determined from the number of colonies obtained by incubating the E. coli TG1 strain contacted with the phage at 37° C. overnight. The phage library eluted after panning of Example 7 (Table 9: Input phage (Round 4)) was subjected to Human IgG Fc-immobilized plate, and negative selection was performed by collecting unbound phages. The phage library was then acted to FGFR3 prepared to concentrations of 100 nM, 10 nM, and 1 nM. Bound phages were then collected. The genomic DNA of the collected phages was extracted, samples were prepared according to Illumina's protocol for Miseq, and a comprehensive analysis of the phage genomic DNA was performed. Among the sequences obtained, 20 sequences high incidence rates were selected (Table 11). The yeast cells acquired in the screening of Example 8 were seeded onto SDCAA agar plates and cultured. Fourteen single colonies formed on the agar plates were randomly selected, and for each clone, the peptide DNA sequence incorporated into the yeast expression plasmid was analyzed using the Sanger method (Table 12).
Sequence,1 nM Num. of reads (FGFR1),10 nM Num. of reads (FGFR1),100 nM Num. of reads (FGFR1),1 nM Ranking (FGFR1),10 nM Ranking (FGFR1),100 nM Ranking (FGFR1),1 nM Num. of reads (FGFR3),10 nM Num. of reads (FGFR3),100 nM Num. of reads (FGFR3),1 nM Ranking (FGFR3),10 nM Ranking (FGFR3),100 nM Ranking (FGFR3)
CAAELAALDAELAALEGARLGKMSKVGKLIKLKEKLQNLKMAC [100n182],1428,1468,937,10,12,13,–,–,–,–,–,–
CAAELAALEAELAALEGADAFTLGSAGKLMMLKEKLNHLKHAC [100n1348],349,473,346,27,30,30,–,–,–,–,–,–
CAAELAALEAELAALEGAKKAEEGQKGKLYRLKNKLHYLKSAC [100n423],561,867,439,21,19,26,–,–,–,–,–,–
CAAELAALEAELAALEGASTPTLESRGKLGSLIFKLRQLKVAC [F3-100n50],–,–,–,–,–,–,1149,820,1121,14,15,14
CAAELAALEAELAALEGAVGDKRKSKGKLMMLKQKLELLKGAC [100n85],6769,9230,7482,2,2,2,–,–,–,–,–,–
CAAELAALEAELAALEGAWVEQVNRRGKLDGLKMKLQRLKLAC [100n51],704,1000,649,19,16,16,–,–,–,–,–,–
CAAELAALEAELAALEGDCLAGGCSFGKLLNLKQKLIRLKRAC [100n108],873,1155,464,13,14,22,–,–,–,–,–,–
CAAELAALEAELAALEGEGMSTLNRQGKLSVLKSKLLWLKHAC [F3-100n228],–,–,–,–,–,–,2006,1447,1753,5,6,7
CAAELAALEAELAALEGENVYTLGGLGKLMLLKYKLRELKGAC [F3-100n458],–,–,–,–,–,–,1304,789,1023,10,17,20
CAAELAALEAELAALEGETNMTVLMTGKLLVLKHKLEHLKWAC [F3-100n386],–,–,–,–,–,–,1216,781,1028,13,18,19
CAAELAALEAELAALEGFGGVVYSCEWQAVYLKYKLMRLKQAC [100n17],8443,10095,8500,1,1,1,–,–,–,–,–,–
CAAELAALEAELAALEGGDEVPHVGGGKLKMLKYQLNNLKHAC [100n417],721,1010,762,18,15,14,–,–,–,–,–,–
CAAELAALEAELAALEGGMATDHMNRGKLYRLKNKLHFLKIAC [100n781],352,262,228,26,48,40,–,–,–,–,–,–
CAAELAALEAELAALEGGRFSGLQEKGKLYGLKNKLHYLKRAC [100n368],2077,2177,1695,8,9,11,–,–,–,–,–,–
CAAELAALEAELAALEGINAVPMSGRGKLYSLKNKLHYLKNAC [100n12],273,267,258,30,46,34,–,–,–,–,–,–
CAAELAALEAELAALEGLGGFFNLRTGKLDELKMKLQHLKQAC [100n84],795,854,563,15,20,19,–,–,–,–,–,–
CAAELAALEAELAALEGMSNHTLGSIGKLMLLKDKLESLKEAC [100n1074],756,688,333,16,23,31,–,–,–,–,–,–
CAAELAALEAELAALEGNTANDPTASGKLKYLKYKLSNLKHAC [100n606],872,894,609,14,18,18,–,–,–,–,–,–
CAAELAALEAELAALEGPHPRHHHPHGKLKKLKRKLYKLKQAC [100n222],525,776,541,22,22,20,–,–,–,–,–,–
CAAELAALEAELAALEGQTFMNPHRLGKLDKLKLKLVHLKRAC [100n8],4243,3717,1974,7,7,8,–,–,–,–,–,–
CAAELAALEAELAALEGREPSGAMGSGKLKRLKYKLQNLKHAC [100n1793],493,493,395,23,29,29,–,–,–,–,–,–
CAAELAALEAELAALEGSSMDHVAYTGKLRMLKFRLELLKGAC [100n1543],233,276,216,37,43,43,–,–,–,–,–,–
CAAELAALEAELAALEGSVALGNKAGGKLRLLKLKLELLKDAC [100n1314],260,406,238,34,31,38,–,–,–,–,–,–
CAAELAALEAELAALEGVGRLYHMASGKLDRLKGKLMVLKYAC [100n82],6561,7109,4896,3,4,5,–,–,–,–,–,–
CAAELAALEAELAALEGVKELTLGTVGKLMSLKYKLWSLKQAC [100n83],4939,6581,3079,5,5,6,–,–,–,–,–,–
CAAELAALEAELAALEGVPALVGQEGGKLVLLKWKLWRLKNAC [100n36],483,677,398,24,24,28,–,–,–,–,–,–
